Columns and labels:
[1] = Dissolution of sulfonamides in clove oil; settings: concentration 5 mg/ml in clove oil
Procedure: Oil phase was prepared by sulfonamides dissolution in the clove oil. A 5 mg of drug was weighted in an eppendorf and 1 ml of clove oil was added. The tube was agitated for 1 min for obtaining of the drug solution (5 mg/ml). Aqueous phase were prepared by adding 1 g of Pluronic F127® in 8 mg of water. Then 1 ml of oil phase (drug dissolved in clove oil) was added to 9 ml of aqueous phase (Pluronic F127 in water) under constant ultrasound homogenization (amplitude 80%, continuous cycle n. 1) during 5 min in an ice bath at 5 °C to prevent heating of the dispersion.
The NEs were produced with 10% of oil phase.

Trypanosoma cruzi = test system: Trypanosoma cruzi; set-up: method as in PMID 23815159; settings: unformulated sulfonamides; cited from earlier work
[2] = test system: T. cruzi Dm28c strain epimastigotes; assay: Flow cytometry annexin V-FITC / propidium iodide, Dm28c; assay type: cell-based, Trypanosoma cruzi; settings: 32 μM
Procedure: The analysis of the externalization of phosphatidylserine was performed using annexin V fluoresceine isothiocyanate (AV FITC) and propidium iodide, PI (Santa Cruz Biotechonology, Santa Cruz, CA). The cells were analysed by flow cytometry (FACS Calibur-Beckton-Dickinson), 50,000 events were analysed by the Paint-a-gate program and values were expressed as percentage of cells positive for a given marker relative to the total number of cells: FITC-labelled cells […], PI-labelled cells […], and cells with ruptured cell membrane (necrotic cells will be double-labelled).

[3] = test system: T. cruzi Y strain epimastigotes; assay: Growth inhibition of T. cruzi epimastigotes, resazurin microdilution, Y strain; assay type: cell-based; settings: Trypanosoma cruzi; TcY epimastigotes, drug nanoemulsions; read-out: IC90 (concentration which reduced the proliferation of epimastigotes by 90%)
Procedure: (§1) Epimastigote forms of the T. cruzi clone Dm28c ([…])[31] and Y([…])[32]^,[33] strains obtained from the Laboratory of Cellular Ultrastructure (both laboratories of the Oswaldo Cruz Foundation, Rio de Janeiro, Brazil) were used. The parasites were maintained in PBHIL medium supplemented with 10% bovine serum (FBS) at 28 °C[34].
(§2) The Minimum inhibitory concentration (MIC) for epimastigotes was performed with resazurin as an indicator of cellular metabolic function and it was determined as the lowest concentration capable of inhibiting in vitro growth of the parasites.

[4] = test system: T. cruzi clone Dm28c epimastigotes; assay: Growth inhibition of T. cruzi epimastigotes, resazurin microdilution, Dm28c; assay type: cell-based, Trypanosoma cruzi
Procedure: as §1, §2

dissolution in clove oil [1]	Structure (SMILES)	in vivo anti-trypanosomal effects (Trypanosoma cruzi)	other results
dissolved efficiently	NS(=O)(=O)c1ccc(NC(=O)Cc2ccc(Cl)cc2)c(F)c1 [3F]	did not show in vivo anti-trypanosomal effects	
dissolved efficiently	NS(=O)(=O)c1ccc(NC(=O)Cc2ccccc2Br)c(F)c1 [3G]	did not show in vivo anti-trypanosomal effects	
dissolved efficiently	NS(=O)(=O)c1ccc(CCNC(=O)Cc2ccccc2Br)cc1 [3W]	did not show in vivo anti-trypanosomal effects	
dissolved efficiently	NS(=O)(=O)c1nnc(NC(=O)Cc2ccc(Cl)cc2)s1 [5B]	did not show in vivo anti-trypanosomal effects	

Further lines, the molecule ahead of its results:

Structure (SMILES)	dissolution in clove oil [1]	in vivo anti-trypanosomal effects (Trypanosoma cruzi)	other results
NS(=O)(=O)c1nnc(NC(=O)Cc2ccccc2Br)s1 [5C]	dissolved efficiently	did not show in vivo anti-trypanosomal effects	
COc1ccc(CC(=O)Nc2nnc(S(N)(=O)=O)s2)cc1 [5D]	dissolved efficiently	did not show in vivo anti-trypanosomal effects	
O=C(Cn1ccnc1[N+](=O)[O-])NCc1ccccc1 [BZN, 2-nitro-imidazole-(N-benzil-2-nitro-1imidazoleacetamide)]			cell death by necrosis (propidium iodide) [2]: 51.16%; IC90 [3]: > 128 µM; IC50 ([4]; Trypanosoma cruzi, read-out: IC50 (concentration which reduced the proliferation of epimastigotes by 50%), Tc DM28c epimastigotes, drug nanoemulsions): 20.6 µM; IC90 ([4]; Trypanosoma cruzi, Tc DM28c epimastigotes, drug nanoemulsions, read-out: IC90 (concentration which reduced the proliferation of epimastigotes by 90%)): > 128 µM; SI (selectivity index) ([4]; both strains (DM28c and Y), CC50 RAW / IC50): 5–5.8

Reference: PMC7011998 (Journal of Enzyme Inhibition and Medicinal Chemistry, 2017)
